The results in this text go back to BindingDB's records for doi:10.1124/jpet.102.044826 (Taisho Pharmaceutical, 2003).

Test [1] has as its target T1, Alpha-1A adrenergic receptor (Rattus norvegicus, UniProt P43140).
T1 sequence (P43140 whole entry): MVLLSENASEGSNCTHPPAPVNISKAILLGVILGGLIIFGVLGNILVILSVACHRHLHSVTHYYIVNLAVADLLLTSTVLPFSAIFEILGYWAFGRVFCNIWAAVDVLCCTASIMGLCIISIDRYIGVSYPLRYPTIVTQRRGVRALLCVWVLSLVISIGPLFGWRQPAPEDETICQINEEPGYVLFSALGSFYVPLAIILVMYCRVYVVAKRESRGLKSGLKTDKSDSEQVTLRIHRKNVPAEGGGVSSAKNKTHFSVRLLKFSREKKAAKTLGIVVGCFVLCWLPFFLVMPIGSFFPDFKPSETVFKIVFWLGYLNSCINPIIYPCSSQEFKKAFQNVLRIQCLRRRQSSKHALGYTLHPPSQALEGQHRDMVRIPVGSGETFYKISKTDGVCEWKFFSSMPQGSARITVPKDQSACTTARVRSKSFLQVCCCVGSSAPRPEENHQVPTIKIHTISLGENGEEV

In test [2] the target is T2, Alpha-2C adrenergic receptor (Homo sapiens, UniProt P18825).
T2 sequence (P18825 whole entry): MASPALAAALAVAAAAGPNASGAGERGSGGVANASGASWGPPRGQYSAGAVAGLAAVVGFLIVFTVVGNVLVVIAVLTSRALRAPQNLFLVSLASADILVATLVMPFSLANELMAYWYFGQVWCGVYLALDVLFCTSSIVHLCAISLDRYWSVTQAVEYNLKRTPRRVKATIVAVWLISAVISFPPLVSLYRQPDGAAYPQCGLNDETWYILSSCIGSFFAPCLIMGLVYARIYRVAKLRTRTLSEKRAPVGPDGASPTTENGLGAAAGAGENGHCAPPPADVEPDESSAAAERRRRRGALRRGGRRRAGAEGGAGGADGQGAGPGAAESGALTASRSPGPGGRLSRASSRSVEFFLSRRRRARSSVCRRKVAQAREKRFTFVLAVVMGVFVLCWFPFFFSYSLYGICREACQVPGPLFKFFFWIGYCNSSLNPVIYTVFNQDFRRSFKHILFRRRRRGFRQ

Turning to `COc1ccc2ccccc2c1CCCCN1CCN(C[C@H](c2ccc(F)cc2)N2CCN(C(C)C)CC2)CC1` [MCL0129], the concentration for half-maximal inhibition (IC50) in test [1] was 630 nM; in test [2], 1000 nM.

The term IC50 denotes the concentration needed to halve the response being measured. Low readings indicate higher potency, high ones lower potency.
